Measurements published in patent publication US20220023196A1, “COSMETIC COMPOSITION FOR SKIN IMPROVEMENT COMPRISING GREEN BARLEY EXTRACT” (AMI COSMETIC CO., LTD., priority 2020, published 2022).

Assays:
sensitive skin = test: Human patch test for skin irritation on sensitive skin; assay type: in vivo
Procedure: A test was conducted to evaluate the suitability and safety of use of soothing gel, lotion, cream, body wash, and foam cleanser formulations including a composition including the ceramide and green barley extract of the present invention. The inventors requested the OATC Skin Clinical Trials Center to perform a human application test, and the test was conducted in accordance with the cosmetics guidelines of Korea's Ministry of Food and Drug Safety, Declaration of Helsinki, and OATC Skin Clinical Trials Center's SOP.
In order to classify the test subjects according to skin type, the test subjects were screened by a stinging test to identify those with sensitive skin, wherein steam was applied to their faces for 10 minutes using a steamer to make their skin sensitive, and subsequently, each of 10% lactic acid and distilled water (D.W.) was applied to the nasolabial folds on either side of the nose.
After the test subject's test site was wiped off with 70% ethanol and dried, 25 μl of a test product was applied dropwise to IQ Ultra, which was then attached and fixed to the test site. At 30 minutes, 24 hours, and 48 hours after removing the patch, the level of irritation was evaluated by two experts using, as a standard, the evaluation method devised by Frosch & Kligman and employing the reading standards of the International Contact Dermatitis Research Group (ICDRG).
In addition, safety zones were established, and an experiment was conducted while using the safety zones as criteria for evaluating the likelihood of causing irritation.

filaggrin (FLG) = test: FLG production in HaCaT cells (Filaggrin-ELISA kit); assay type: cell-based; conditions: for Increase in FLG production (%): 24 hours, Concentration 50 (unit not given), Control = 100
Procedure: (§1) HaCaT cells were dispensed into a 24-well plate at 1.0×10^5 cells/mL and cultured under the conditions of 37° C. and 5% CO2 for 18 hours. After the medium was replaced with serum-free DMEM, the cells were treated with a sample and then cultured for 24 hours. Subsequently, the culture solution was removed, and each group was washed with PBS and then treated with PBS containing no drugs that could interfere with the quantification of proteins. The cells were lysed through repeated switching between low-temperature incubation and room-temperature incubation, and the proteins were collected. The quantification was performed, using a Filaggrin-ELISA kit (Elabscience Biotechnology Co., Ltd.), according to the method specified by the manufacturer.
In order to evaluate the skin barrier strengthening effect of Examples 1 to 6 and Comparative Examples 1 to 5, an experiment was conducted to evaluate the effect of increasing the production of FLG.
The production amount of FLG was measured in the same manner as in Experimental Example 3-1.

aquaporin 3 (AQP3) = test: AQP3 production in HaCaT cells (AQP3-ELISA kit); assay type: cell-based; conditions: 24 hours; for Increase in AQP3 production (%): Concentration 50 (unit not given), Control = 100
Procedure: as §1, with “In addition, HaCaT cells” for “HaCaT cells”, “cells/mL and then cultured under” for “cells/mL and cultured under”, “performed, using an AQP3-ELISA kit (Elabscience” for “performed, using a Filaggrin-ELISA kit (Elabscience”
In order to evaluate the moisturizing effect of Examples 1 to 6 and Comparative Examples 1 to 5, an experiment was conducted to evaluate an AQP3 production increasing effect.
The AQP3 production amount was measured in the same manner as in Experimental Example 3-2.

hyaluronic acid (HA) = test: HA production in HaCaT cells (hyaluronic acid ELISA kit); assay type: cell-based; conditions: 24 hours; for Increase in HA production (%): Concentration 50 (unit not given), Control = 100
Procedure: HaCaT cells were dispensed into a 24-well plate at 1.0×10^5 cells/mL and cultured under the conditions of 37° C. and 5% CO2 for 18 hours. After the medium was replaced with serum-free DMEM, the cells were treated with a sample and then cultured for 24 hours. Subsequently, the culture medium was collected and centrifuged at 15,000 rpm for five minutes, and the supernatant was collected and stored frozen (−20° C.) until quantified. Enzyme-linked immunosorbent assay (ELISA) was conducted, using a hyaluronic acid ELISA kit (Elabscience Biotechnology Co., Ltd.), according to the method specified by the manufacturer.
In order to evaluate the moisturizing effect of Examples 1 to 6 and Comparative Examples 1 to 5, an experiment was conducted to evaluate an HA production increasing effect.
The HA production amount was measured in the same manner as in Experimental Example 3-2.

CCCCCCCCCCCCOS(=O)(=O)[O-].[Na+] [1% SLS]
Sum of skin irritation reaction intensity 1st (sensitive skin; 1st reading, patch test): 4.00 | Sum of skin irritation reaction intensity 2nd (sensitive skin; 2nd reading, patch test): 4.00 | Sum of skin irritation reaction intensity 3rd (sensitive skin; 3rd reading, patch test): 3.06 | Irritation of level ++ or more in >10% of test subjects (sensitive skin; conformity criterion): Conforming | Safety zone (sensitive skin; conformity to safety zone of Table 20): Conforming | Skin irritation index (sensitive skin; patch test): 3.06

CCCCCCCCCCCCC/C=C/C(O)C(CO)NC(=O)CCCCCCCCCCCCCCCCCCCCCC (stereo not drawn) [Comparative Example 2, Ceramide NS]
Increase in FLG production (%) (filaggrin (FLG)): 116.7% | Increase in AQP3 production (%) (aquaporin 3 (AQP3)): 118.5% | Increase in HA production (%) (hyaluronic acid (HA)): 94.5%

CCCCCCCCCCCCCCCCCCCCCCC(=O)NC(CO)C(O)C(O)CCCCCCCCCCCCCC (stereo not drawn) [Comparative Example 3, Ceramide NP]
Increase in FLG production (%) (filaggrin (FLG)): 115.5% | Increase in AQP3 production (%) (aquaporin 3 (AQP3)): 114.6% | Increase in HA production (%) (hyaluronic acid (HA)): 93.2%

CCCCCCCCCCCCC/C=C/C(O)C(CO)NC(=O)C(O)CCCCCCCCCCCCCCCCCCCCC (stereo not drawn) [Comparative Example 4, Ceramide AS]
Increase in FLG production (%) (filaggrin (FLG)): 122.4% | Increase in AQP3 production (%) (aquaporin 3 (AQP3)): 114.5% | Increase in HA production (%) (hyaluronic acid (HA)): 94.6%

CCCCCCCCCCCCCCCCCCCCCC(O)C(=O)NC(CO)C(O)C(O)CCCCCCCCCCCCCC (stereo not drawn) [Comparative Example 5, Ceramide AP]
Increase in FLG production (%) (filaggrin (FLG)): 129.9% | Increase in AQP3 production (%) (aquaporin 3 (AQP3)): 113.7% | Increase in HA production (%) (hyaluronic acid (HA)): 95.2%

O=c1cc(-c2ccc(O)cc2)oc2cc(O[C@@H]3O[C@H](CO)[C@@H](O)[C@H](O)[C@H]3O)c([C@@H]3O[C@H](CO)[C@@H](O)[C@H](O)[C@H]3O)c(O)c12 [saponarin, 5-hydroxy-2-(4-hydroxyphenyl)-6-[3,4,5-trihydroxy-6-(hydroxymethyl)oxan-2-yl]-7-[3,4,5-trihydroxy-6-(hydroxymethyl)oxan-2-yl]oxychromen-4-one]
Increase of the expression level of FLG compared to the control (filaggrin (FLG); 24 hours (FIG. 6)): 29.87% | Production of AQP3 (result in words) (aquaporin 3 (AQP3)): significantly increased the production of skin moisturizing factors | Production of HA (result in words) (hyaluronic acid (HA)): significantly increased the production of skin moisturizing factors

Ceramide EOP [Comparative Example 1]
Increase in FLG production (%) (filaggrin (FLG)): 119.5% | Increase in AQP3 production (%) (aquaporin 3 (AQP3)): 117.5% | Increase in HA production (%) (hyaluronic acid (HA)): 93.0%
